Measurements: patent publication US12600740B2, “Fluorinated N-acetyl glucosamine analogs and xylose derivatives” (UTI Limited Partnership, priority 2018, dated 2026)
“Also recorded” adds a separate entry of the source.

Tests used:
[1] = tested on: CD3+ T cells; assay: Annexin V/propidium iodide staining; assay type: cell-based; details: for necrotic, apoptotic, dead or live cells (Annexin V/PI): isolated CD3+ T cells, 25 μM and 50 μM; for cell death on splenocytes: propidium iodide/annexin V staining or cell cycle analysis
Source text: Cell-cycle flow cytometry with propidium iodide was used to corroborate the above results, and ensure the reduction in proliferation was not due to cell death. […] To further investigate whether the reduction of proliferation was due to cell death, Annexin V and propidium iodide staining were used to differentiate necrotic cells (propidium iodide+), apoptotic cells (annexin V+), dead cells (propidium iodide+ and annexin V+), and live cells (propidium iodide-annexin V−).
Cell cycle staining with propidium iodide (PI) and analysis by flow cytometry gives percentage of cells in apoptosis, G1, G2, and synthesis, and apoptosis. Following a membrane permeabilization, PI chelates to DNA and level of staining specifies the stage of the cell cycle (e.g., G2 phase will have twice the DNA and thus twice the PI signal as G1 phase, apoptotic cells contain less DNA than healthy cells and are identified by low PI staining). 1×10^6 splenocytes were used per sample, with four replicates per condition. Cells were collected into a tube with PBS and centrifuged (200 r.p.m. for 5 minutes). Pellet was resuspended in 500 μl PBS and 500 μl ice cold 100% ethanol was slowly added with gentle vortexing of sample. Cell suspension was stored at 4° C. for at least 2 hours (up to two weeks). Next, the suspension was centrifuged at 200 r.p.m. for 3 minutes, pellet was resuspended in PBS and suspension was centrifuged at 200 r.p.m for 10 minutes at 4° C. Pellet was resuspended in 350 μl of PI staining buffer (50 μg/ml propidium iodide, 0.1% TritonX100, 0.2 mg Dnase free Rnase A in PBS) and incubated for 30-45 minutes at room temperature. Suspension was transferred to a FACs tube and analyzed. Annexin V/Propidium iodide staining was detected using the Annexin V FITC apoptosis detection kit (BD Biosciences, #556547), which was performed according to manufacturer's instructions.

[2] = tested on: TNFα; assay: TNFα ELISA of LPS-stimulated bone marrow-derived macrophages; assay type: cell-based, mouse; details: BMDMs, 50 μM, LPS 100 ng/ml, 24 hours
Experimental: Multiple Sclerosis: Mechanisms and Immunotherapy. Neuron 97, 742-768 (2018)]. It was tested whether the sugar analogs could affect the activity of macrophages, using bone marrow-derived macrophages (BMDMs) stimulated with lipopolysaccharide (LPS, 100 ng/ml). The sugar analogs were added at 50 μM prior to LPS, and the conditioned medium was collected after 24 hours and assayed for levels of the secreted cytokine TNFα. […] Testing Toxicity of Sugar Analogs
Femurs were carefully removed from euthanized female C57BI/6 mice, and marrow was flushed into a culture plate with cold complete bone marrow growth medium (DMEM, 10% fetal bovine serum, and the supplements 1% penicillin/streptomycin, 1% glutamine, 1% non-essential amino acids, and 10% supernatant from L929 cell-line enriched in macrophage-colony stimulating factor). Cells were spun at 1100 rpm for 10 minutes, resuspended in fresh growth medium and plated at 10×10^6 cells/ml in a 10 cm culture dish. Cells were grown in DMEM with supplements and L929 supernatant for 5 days, then half the medium was replaced with fresh growth medium. On day 7 growth medium was replaced with DMEM with 10% FBS and supplements. Cells were used on day 8, and experiments were conducted in DMEM with 1% FBS and supplements unless otherwise specified.
BMDM were plated at 25,000 cells in 96-well plates in DMEM+L929 media. After 24 hours media was changed to DMEM+1% FBS. One hour later, cells were treated with […] compounds or PBS. After 1 hour LPS (final concentration 100 ng/ml) was added. Following 24 hours, conditioned media was harvested for TNFα ELISA (Thermo Scientific), which was performed according to manufacturer's instructions.

[3] = tested on: human neurons; assay: Human neuron ATP luminescence assay; assay type: cell-based; details: 100 μM
Experimental: If the sugar compounds are to be used in neurological disorders, they should not display toxicity to neural cells. Thus, human neurons were used to test the compounds, and the ATP luminescence assay as a readout of metabolic stress and a surrogate of toxicity. Compounds were tested at a high dose of 100 μM. […] Two compounds that reduced ATP production by more than 50% were the 4-fluorinated hemiacetals that respectively bear O3,O6-diacetates 10 (Ac-4-F-GlcNAcOH) and O3,O6-dipropanoates 11 (Pr-4-F-GlcNAcOH), with the former displaying higher cytotoxicity than the latter (FIG. 6d).
Human fetal neurons were plated at 10×10^4 cells/well in 96 well plates as previously described [Vecil, G. G. et al. Interleukin-1 is a key regulator of matrix metalloproteinase-9 expression in human neurons in culture and following mouse brain trauma in vivo. Journal of Neuroscience Research 61, 212-224 (2000)]. After 24 hours neurons were treated with 100 μM compounds and incubated for 24 hours. The ATP assay (CellTiter-Glo Luminescent Cell Viability Assay; Promega, Madison, WI, USA) was then performed to test for toxicity according to manufacturer's instructions.

| SMILES | necrotic, apoptotic, dead or live cells (Annexin V/PI) [1] | cell death on splenocytes [1] | TNFα production by LPS-stimulated macrophages [2] | cytotoxicity on neurons [3] |
| --- | --- | --- | --- | --- |
| CC(=O)NC1C(OC(C)=O)OC(COC(C)=O)C(F)(F)[C@@H]1OC(C)=O (mixture of isomers) [Compound 16, 2-Acetamido-1,3,6-tri-O-acetyl-2,4-dideoxy-4,4-difluoro-α/β-D-xylo-hexopyranose] | no evidence of causing non-specific cell apoptosis or necrosis; also recorded: did not display notable changes in their proportion of necrotic, apoptotic, dead, or live cells | did not show detectable cell death | did not alter cytokine level of activated macrophages | no signs of toxicity in neurons |
| CC(=O)NC1C(O)OC(COC(C)=O)[C@@H](F)[C@@H]1OC(C)=O (mixture of isomers) [Compound 10] | – | did not show detectable cell death | enhanced TNFα levels | showed evidence of toxicity on neurons |
| CCCC(=O)OC1OC(COC(C)=O)[C@@H](F)[C@H](OC(C)=O)C1NC(C)=O (mixture of isomers) [Compound 8, 2-Acetamido-3,6-di-O-acetyl-1-O-butanoyl-2,4-dideoxy-4-fluoro-α/β-D-glucopyranose] | – | did not show detectable cell death | – | – |
| CCCC(=O)OC[C@H]1OC(O)[C@H](NC(C)=O)[C@@H](OC(=O)CCC)[C@@H]1F (stereo partly drawn) [Compound 12, 2-Acetamido-3,6-di-O-butanoyl-2,4-dideoxy-4-fluoro-α/β-3-D-glucopyranose] | – | – | – | showed no cytotoxicity |
| CC(=O)NC1C(OC(C)=O)OC(COC(C)=O)[C@@H](F)C1OC(C)=O (stereo partly drawn) [Compound 3, reference compound] | no evidence of causing non-specific cell apoptosis or necrosis; also recorded: did not display notable changes in their proportion of necrotic, apoptotic, dead, or live cells | did not show detectable cell death | did not alter cytokine level of activated macrophages | – |
